A value given as a limit tells only on which side of the number the result lay.

The assay has as its system ATF4 luciferase reporter in HEK293T cells. Description: ATF4-Luc assay (ATF4 luciferase reporter, tunicamycin-treated HEK293T cells). The following applies: Homo sapiens, HEK-293T; HEK293T cells carrying the ATF4 luciferase reporter, 1 μg/mL tunicamycin, 7 hours. The format is cell-based, human. For orientation: Reporter assays use an easily measured gene product as a stand-in for the process of interest.
By EC50 is commonly meant the concentration that produces a half-maximal response. With `CC(=O)c1ccc(OCC(=O)NC23CCC(NC(=O)COc4ccc(Cl)c(F)c4)(CC2)[C@@H](O)C3)cc1` [Compound 524, 2-(4-acetylphenoxy)-N-{(3S)-4-[2-(4-chloro-3-fluorophenoxy)acetamido]-3-hydroxybicyclo[2.2.2]octan-1-yl}acetamide], the EC50 is 10 to 50 nM. The figure for `Cc1cc(OCC(=O)NC23CCC(NC(=O)COc4ccc(Cl)c(C)c4)(CC2)[C@@H](O)C3)ccc1Cl` [Compound 525, N,N′-[(2S)-2-hydroxybicyclo[2.2.2]octane-1,4-diyl]bis[2-(4-chloro-3-methylphenoxy)acetamide]] is less than 10 nM; for `O=C(COc1ccc(Cl)c(Cl)c1)NC12CCC(NC(=O)COc3ccc(Cl)c(Cl)c3)(CC1)C2` [Compound 526, N,N′-(bicyclo[2.2.1]heptane-1,4-diyl)bis[2-(3,4-dichlorophenoxy)acetamide]] it is 10 to 50 nM. With `O=C(COc1ccc(Cl)cc1)NC12CCC(NC(=O)COc3ccc(Cl)cc3)(CC1)C2` [Compound 527, N,N′-(bicyclo[2.2.1]heptane-1,4-diyl)bis[2-(4-chlorophenoxy)acetamide]], the concentration giving a half-maximal response (EC50) was in the range of 10 to 50 nM. The figure for `COc1cc(OCC(=O)NC23CCC(NC(=O)COc4ccc(Cl)c(F)c4)(CC2)C[C@@H]3O)ccc1Cl` [Compound 528, 2-(4-chloro-3-fluorophenoxy)-N-{(3S)-4-[2-(4-chloro-3-methoxyphenoxy)acetamido]-3-hydroxybicyclo[2.2.2]octan-1-yl}acetamide] is less than 10 nM; for `O=C(COc1ccc(C(F)(F)F)nc1)NC12CCC(NC(=O)COc3ccc(C(F)(F)F)nc3)(CC1)C2` [Compound 530, N,N′-(bicyclo[2.2.1]heptane-1,4-diyl)bis(2-{[6-(trifluoromethyl)pyridin-3-yl]oxy}acetamide)] it is 500 to 2000 nM. Take `O=C(COc1ccc2c(c1)OC(F)(F)O2)NC12CCC(NC(=O)COc3ccc4c(c3)OC(F)(F)O4)(CC1)C2` [Compound 531, N,N′-(bicyclo[2.2.1]heptane-1,4-diyl)bis{2-[(2,2-difluoro-2H-1,3-benzodioxol-5-yl)oxy]acetamide}]: the EC50 was 250 to 500 nM. The figure for `O=C(COc1ccc(F)cc1)NC12CC(NC(=O)COc3ccc(Cl)c(Cl)c3)(C1)C2` [Compound 532, 2-(3,4-dichlorophenoxy)-N-{3-[2-(4-fluorophenoxy)acetamido]bicyclo[1.1.1]pentan-1-yl}acetamide] is less than 10 nM. Take `O=C(COc1ccc(F)c(Cl)c1)NC12CC(NC(=O)COc3ccc(Cl)c(Cl)c3)(C1)C2` [Compound 533, 2-(3-chloro-4-fluorophenoxy)-N-{3-[2-(3,4-dichlorophenoxy)acetamido]bicyclo[1.1.1]pentan-1-yl}acetamide]: the concentration for a half-maximal effect (EC50) was less than 10 nM. Consider `O=C(COc1ccc(Cl)c(F)c1)NC12CC(NC(=O)COc3ccc(F)c(Cl)c3)(C1)C2` [Compound 534, 2-(4-chloro-3-fluorophenoxy)-N-{3-[2-(3-chloro-4-fluorophenoxy)acetamido]bicyclo[1.1.1]pentan-1-yl}acetamide], for which the half-maximal effective concentration (EC50) is less than 10 nM.

`O=C(COc1ccc(Cl)c(F)c1)NC12CCC(NC(=O)COc3ccc(F)c(Cl)c3)(C1)C2` [Compound 535, 2-(3-chloro-4-fluorophenoxy)-N-{4-[2-(4-chloro-3-fluorophenoxy)acetamido]bicyclo[2.1.1]hexan-1-yl}acetamide]: the EC50 lay within 10 to 50 nM. Turning to `O=C(COc1ccc(C(F)(F)F)cc1)NC12CCC(NC(=O)COc3ccc(C(F)(F)F)cc3)(CC1)[C@@H](O)C2` [Compound 536, N,N′-[(2S)-2-hydroxybicyclo[2.2.2]octane-1,4-diyl]bis{2-[4-(trifluoromethyl)phenoxy]acetamide}], the EC50 was less than 10 nM. In the case of `O=C(COc1ccc(Cl)c(F)c1)NC12CCC(NC(=O)COc3ccc(C(F)F)cc3)(CC1)[C@@H](O)C2` [Compound 537, 2-(4-chloro-3-fluorophenoxy)-N-[(3S)-4-{2-[4-(difluoromethyl)phenoxy]acetamido}-3-hydroxybicyclo[2.2.2]octan-1-yl]acetamide] it was less than 10 nM; in that of `O=C(COc1ccc(Cl)c(Cl)c1)NC12CCC(NC(=O)COc3ccc(Cl)c(Cl)c3)(CC1)[C@@H](O)C2` [Compound 538, N,N′-[(2S)-2-hydroxybicyclo[2.2.2]octane-1,4-diyl]bis[2-(3,4-dichlorophenoxy)acetamide]], less than 10 nM.

For the molecule `O=C(COc1ccc(C(F)F)cc1)NC12CCC(NC(=O)COc3ccc(Cl)c(F)c3)(CC1)[C@@H](O)C2` [Compound 539, 2-(4-chloro-3-fluorophenoxy)-N-[(2S)-4-{2-[4-(difluoromethyl)phenoxy]acetamido}-2-hydroxybicyclo[2.2.2]octan-1-yl]acetamide], the 50% effective concentration (EC50) was less than 10 nM. As for `O=C(COc1ccc(Cl)cc1)NC12CCC(NC(=O)COc3ccc(Cl)cc3)(CC1)[C@@H](O)C2` [Compound 540, N,N′-[(2S)-2-hydroxybicyclo[2.2.2]octane-1,4-diyl]bis[2-(4-chlorophenoxy)acetamide]], the half-maximal effective concentration (EC50) was less than 10 nM. In the case of `O=C(COc1ccc(C(F)(F)F)nc1)NC12CCC(NC(=O)COc3ccc(C(F)(F)F)nc3)(CC1)[C@@H](O)C2` [Compound 541, N,N′-[(2S)-2-hydroxybicyclo[2.2.2]octane-1,4-diyl]bis(2-{[6-(trifluoromethyl)pyridin-3-yl]oxy}acetamide)] it was 10 to 50 nM; in that of `O=C(COc1ccc2c(c1)OC(F)(F)O2)NC12CCC(NC(=O)COc3ccc4c(c3)OC(F)(F)O4)(CC1)[C@@H](O)C2` [Compound 542, N,N′-[(2S)-2-hydroxybicyclo[2.2.2]octane-1,4-diyl]bis{2-[(2,2-difluoro-2H-1,3-benzodioxol-5-yl)oxy]acetamide}], less than 10 nM; in that of `O=C(CCCc1cccc(Cl)c1)NC12CC(NC(=O)COc3ccc(Cl)c(F)c3)(C1)C2` [Compound 543, N-{3-[2-(4-chloro-3-fluorophenoxy)acetamido]bicyclo[1.1.1]pentan-1-yl}-4-(3-chlorophenyl)butanamide], 50 to 250 nM.

In the case of `O=C(COc1ccc(F)c(Cl)c1)NC12CCC(NC(=O)COc3ccc(Cl)c(Cl)c3)(CC1)[C@@H](O)C2` [Compound 544, 2-(3-chloro-4-fluorophenoxy)-N-{(3S)-4-[2-(3,4-dichlorophenoxy)acetamido]-3-hydroxybicyclo[2.2.2]octan-1-yl}acetamide], the EC50 was less than 10 nM. In the case of `O=C(COc1ccc(F)c(Cl)c1)NC12CCC(NC(=O)COc3ccc(Cl)c(F)c3)(CC1)[C@@H](O)C2` [Compound 545, 2-(4-chloro-3-fluorophenoxy)-N-{(2S)-4-[2-(3-chloro-4-fluorophenoxy)acetamido]-2-hydroxybicyclo[2.2.2]octan-1-yl}acetamide] it was less than 10 nM. Take `O=C(COc1ccc(Cl)cc1)NC12CC(NC(=O)COc3ccc(F)c(Cl)c3)(C1)C2` [Compound 546, 2-(3-chloro-4-fluorophenoxy)-N-{3-[2-(4-chlorophenoxy)acetamido]bicyclo[1.1.1]pentan-1-yl}acetamide]: the EC50 was less than 10 nM. On to `O=C(COc1ccc(F)c(Cl)c1)NC12CC(NC(=O)COc3ccc(F)c(Cl)c3)(C1)C2` [Compound 547, N,N′-(bicyclo[1.1.1]pentane-1,3-diyl)bis[2-(3-chloro-4-fluorophenoxy)acetamide]], for which the EC50 was less than 10 nM. In the case of `O=C(COc1ccc(Cl)c(F)c1)NC12CCC(NC(=O)COc3ccc(Cl)c(F)c3)(CC1)C(O)C2O` (stereo not drawn) [Compound 548, N,N′-(2,3-dihydroxybicyclo[2.2.2]octane-1,4-diyl)bis[2-(4-chloro-3-fluorophenoxy)acetamide]] it was less than 10 nM; in that of `O=C(COc1cccc(F)c1)NC12CCC(NC(=O)COc3cccc(F)c3)(CC1)[C@@H](O)C2` [Compound 549, N,N′-[(2S)-2-hydroxybicyclo[2.2.2]octane-1,4-diyl]bis[2-(3-fluorophenoxy)acetamide]], 50 to 250 nM.

For `O=C(COc1ccc(F)cc1)NC12CCC(NC(=O)COc3ccc(F)cc3)(CC1)[C@@H](O)C2` [Compound 550, N,N′-[(2S)-2-hydroxybicyclo[2.2.2]octane-1,4-diyl]bis[2-(4-fluorophenoxy)acetamide]], the concentration giving a half-maximal response (EC50) was less than 10 nM. For `O=C(COc1ccc(Cl)c(F)c1)NC12CC(NCc3ccccc3)(C1)C2` [Compound 551, N-[3-(benzylamino)bicyclo[1.1.1]pentan-1-yl]-2-(4-chloro-3-fluorophenoxy)acetamide], the EC50 is 500 to 2000 nM. Consider `O=C(COc1ccc(Cl)c(F)c1)NC12CCC(NC(=O)COc3ccc(Cl)c(F)c3)(CC1)[C@@H](C(=O)O)C2` [Compound 558, (2S)-1,4-bis[2-(4-chloro-3-fluorophenoxy)acetamido]bicyclo[2.2.2]octane-2-carboxylic Acid], for which the EC50 lay in the range of 500 to 2000 nM. With `O=C(COc1ccc(Cl)c(F)c1)NC12CCC(NC(=O)COc3ccc(Cl)c(F)c3)(CC1)[C@H](C(=O)O)C2` [Compound 559, (2R)-1,4-bis[2-(4-chloro-3-fluorophenoxy)acetamido]bicyclo[2.2.2]octane-2-carboxylic Acid], the EC50 was 500 to 2000 nM. In the case of `O=C(COc1ccc(Cl)c(F)c1)NC12CCC(NC(=O)COc3ccc(Cl)c(F)c3)(CC1=O)C(=O)C2` [Compound 561, N,N′-(2,5-dioxobicyclo[2.2.2]octane-1,4-diyl)bis[2-(4-chloro-3-fluorophenoxy)acetamide]], the EC50 is less than 10 nM. The figure for `COC(=O)[C@H]1CC2(NC(=O)COc3ccc(Cl)c(F)c3)CCC1(NC(=O)COc1ccc(Cl)c(F)c1)CC2` [Compound 562, methyl (2S)-1,4-bis[2-(4-chloro-3-fluorophenoxy)acetamido]bicyclo[2.2.2]octane-2-carboxylate] is less than 10 nM. For the molecule `COC(=O)[C@@H]1CC2(NC(=O)COc3ccc(Cl)c(F)c3)CCC1(NC(=O)COc1ccc(Cl)c(F)c1)CC2` [Compound 563, methyl (2R)-1,4-bis[2-(4-chloro-3-fluorophenoxy)acetamido]bicyclo[2.2.2]octane-2-carboxylate], the EC50 was less than 10 nM. Turning to `O=C(COc1ccc(Cl)c(F)c1)NC12CCC(OCc3ccc(Cl)cc3)(CC1)CC2=O` [Compound 564, 2-(4-chloro-3-fluorophenoxy)-N-{4-[(4-chlorophenyl)methoxy]-2-oxobicyclo[2.2.2]octan-1-yl}acetamide], the EC50 was greater than 2000 nM.
